# Where two headings read alike, the source gives them in different places.
# Tests used:
# [1] = pK calculated from monosubstituted compounds assuming additivity of substituent effects
# [2] = cited from earlier work
# [3] = aqueous solution at 25°; final value, standard deviation in parentheses; 2,6-compound: limiting value at CHCl=0
# [4] = pK values quoted from the literature; assay type: physicochemical; conditions: Murray and Gordon value raised by 0.22
# [5] = pK calculated by the Hammett relation, eq (5) and eq (6)
# [6] = pKA calculated from pKP of the corresponding phenol by linear relation eq (8)
# [7] = pK (calc.)−pK (obs.), pK (calc.) from monosubstituted compounds
smiles,measurement,setting,value
"Nc1cccc(Cl)c1Cl [2,3-Dichloroaniline]",ΔpK(1) Dichloroaniline,[1]; [7],0.16
"Oc1cccc(Cl)c1Cl [2,3-Dichlorophenol]",ΔpK(1) Dichlorophenol,[1],−0.05
"Nc1ccc(Cl)cc1Cl [2,4-Dichloroaniline, 2,4-Dichloroaniline]",ΔpK(1) Dichloroaniline,[1]; [7],.01
"Oc1ccc(Cl)cc1Cl [2,4-Dichlorophenol]",ΔpK(1) Dichlorophenol,[1],.06
"Nc1cc(Cl)ccc1Cl [2,5-Dichloroaniline]",melting point,,50 to 50.5 °C
same,pKA,[2]; Gillois and Rumpf,1.57
"Oc1cc(Cl)ccc1Cl [2,5-Dichlorophenol]",ΔpK(1) Dichlorophenol,[1],.15
"Cc1ccc(C)c(O)c1 [2,5-xylenol]",pK,[2],10.40
"Nc1c(Cl)cccc1Cl [2,6-Dichloroaniline]",pKa,physchem,0.482
same,pK Dichloroaniline,[3],0.422
same,ΔpK(1) Dichloroaniline,[1]; [7],.28
"Oc1c(Cl)cccc1Cl [2,6-Dichlorophenol]",pKP adjusted value,[4],7.01
same,ΔpK(1) Dichlorophenol,[1],.27
"Nc1ccc(Cl)c(Cl)c1 [3,4-Dichloroaniline]",ΔpK(1) Dichloroaniline,[1],−.07
"Oc1ccc(Cl)c(Cl)c1 [3,4-Dichlorophenol]",ΔpK(1) Dichlorophenol,[1],−.04
same,difference of Hammett-calculated pK from the observed value,[5],0.08
"O=C(O)c1ccc(Cl)c(Cl)c1 [3,4-dichlorobenzoic acid]",ionization constant (pK),[2],3.64
"Nc1cc(Cl)cc(Cl)c1 [3,5-Dichloroaniline]",ΔpK(1) Dichloroaniline,[1],.06
same,difference of Hammett-calculated pK from the observed value,[5],0.02
"Oc1cc(Cl)cc(Cl)c1 [3,5-Dichlorophenol]",ΔpK(1) Dichlorophenol,[1],.07
same,difference of Hammett-calculated pK from the observed value,[5],0.01
"O=C(O)c1cc(Cl)cc(Cl)c1 [3,5-dichlorobenzoic acid]",ionization constant (pK),[2],3.43
Nc1ccc(Cl)cc1[N+](=O)[O-] [4-chloro-2-nitroaniline],"discrepancy between observed and predicted pK, eq (8)",[6],1.03
Cc1cc(N)ccc1[N+](=O)[O-] [4-nitro-m-toluidine],"discrepancy between observed and predicted pK, eq (8)",[6],0.17
same,pK,[2]; Wepster,1.50

# — publication PMC5323086, “Ionization Constants of the Six Dichloroanilines and the Six Dichlorophenols in Aqueous Solution at 25 °C” (Journal of Research of the National Bureau of Standards. …, 1964)
